# In US11578083B2, “Pyrimidinium compounds and their mixtures for combating animal pests” (BASF SE, priority 2017, dated 2023):
# Test system: green peach aphid (Myzus persicae)
# Experiment: Test 8 green peach aphid, artificial diet (mixtures)
# Assay type: in vivo
# Text: For evaluating control of green peach aphid (Myzus persicae) through systemic means the test unit consisted of 96-well-microtiter plates containing liquid artificial diet under an artificial membrane.
# The compounds or mixtures were formulated using a solution containing 75% water and 25% DMSO. Concentrations of formulated compounds or mixtures were pipetted into the aphid diet, using a custom built pipetter, at two replications.
# For experimental mixtures in these tests identical volumes of both mixing partners at the desired concentrations respectively, were mixed together.
# After application, 5-8 adult aphids were placed on the artificial membrane inside the microtiter plate wells. The aphids were then allowed to suck on the treated aphid diet and incubated at 23±1° C., 50±5% RH for 3 days. Aphid mortality and fecundity was then visually assessed.
smiles,measurement,setting,value
"C[n+]1c([O-])c(-c2ccccc2)c(=O)n2c1SC[C@@H]2c1cnc(Cl)s1 [I-R-1, (3R)-3-(2-chlorothiazol-5-yl)-8-methyl-7-oxo-6-phenyl-2,3-dihydrothiazolo[3,2-a]pyrimidin-4-ium-5-olate]",Average control %,"Table 8.1, solo application I-R-1, use rate 0.4 ppm",0%
same,Average control %,"Table 8.2, solo application I-R-1, use rate 0.4 ppm",0%
